Measurements reported in patent publication US6355799B1, “Substituted benzene compounds, process for their preparation, and herbicidal and defoliant compositions containing them” (ISK Americas Incorporated, priority 1997, dated 2002).

Experiments:
Type in all cases: in vivo
[1] = system: redroot pigweed (Amaranthus retroflexus, AMARE); experiment: Pre-emerge test, greenhouse herbicide activity screening; conditions: pre-emerge, rated 14 days after application, 0 = no damage, 100 = complete death
Procedure, shortened: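 Compounds in acetone were track-sprayed at 187 l/ha, 15–1000 g ai/ha, onto sandy loam pots. Pre-emerge seeds were sown one day before spraying, with surface watering afterwards. Post-emerge plants were at the 2–3 leaf stage and sprayed with 0.25% v/v non-ionic surfactant. Injury was rated 0–100 at 14 days.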

[2] = system: barnyardgrass (Echinochloa crus-galli, ECHCG); experiment: as above; conditions: pre-emerge, rated 14 days after application, 0 = no damage, 100 = complete death
Procedure, shortened: (§1)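 Sandy loam pots; pre-emerge: sown 1 d pre-spray, surface-watered after, then bottom-watered. Post-emerge: sown 8–21 d before, 2–3 leaf stage, + 0.25% v/v NIS, bottom-watered. Acetone, 187 l/ha track spray, 15–1000 g ai/ha. 0–100 injury score, day 14.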

[3] = system: common ragweed (Ambrosia artemisizfolia L., AMBEL); experiment: as above; conditions: pre-emerge, rated 14 days after application, 0 = no damage, 100 = complete death
Procedure, shortened: as §1

[4] = system: green foxtail (Setaria viridis, SETVI); experiment: as above; conditions: pre-emerge, rated 14 days after application, 0 = no damage, 100 = complete death
Procedure, shortened: as §1

[5] = system: ivyleaf morningglory (Ipomoea hederacea, IPOHE); experiment: as above; conditions: pre-emerge, rated 14 days after application, 0 = no damage, 100 = complete death
Procedure, shortened: as §1

[6] = system: johnsongrass (Sorghum halepense, SORHA); experiment: as above; conditions: pre-emerge, rated 14 days after application, 0 = no damage, 100 = complete death
Procedure, shortened: as §1

[7] = system: lambsquarters (Chenopodium album, CHEAL); experiment: as above; conditions: pre-emerge, rated 14 days after application, 0 = no damage, 100 = complete death
Procedure, shortened: as §1

[8] = system: large crabgrass (Digitaria sanguinalis, DIGSA); experiment: as above; conditions: pre-emerge, rated 14 days after application, 0 = no damage, 100 = complete death
Procedure, shortened: as §1

[9] = system: sicklepod (Cassia obtusifolia, CASOB); experiment: as above; conditions: pre-emerge, rated 14 days after application, 0 = no damage, 100 = complete death
Procedure, shortened: as §1

[10] = system: velvetleaf (Abutilon theophrasti, ABUTH); experiment: as above; conditions: pre-emerge, rated 14 days after application, 0 = no damage, 100 = complete death
Procedure, shortened: as §1

[11] = system: field corn (Zea mays L., var. Dekalb 535, CORN); experiment: Pre-emerge test, crop safety; conditions: pre-emerge, rated 14 days after application, 0 = no damage, 100 = complete death
Procedure, shortened: (§2)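 Plants grown in 10 cm pots of sandy loam mix received acetone-dissolved compounds through a moving flat-fan nozzle. Doses ranged from 15 to 1000 g ai/ha. Pre-emerge pots were seeded one day earlier, post-emerge pots 8–21 days earlier. Fourteen days on, each pot was graded 0–100 for damage.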

[12] = system: upland rice (Oryza sp., var. Tebonnet, RICE); experiment: Pre-emerge test, crop safety; conditions: pre-emerge, rated 14 days after application, 0 = no damage, 100 = complete death
Procedure, shortened: as §2

[13] = system: barnyardgrass (Echinochloa crus-galli, ECHCG); experiment: Post-emerge test, greenhouse herbicide activity screening; conditions: phytotoxicity rating 0-100 (0 no damage, 100 complete death), 14 days after application
Procedure, shortened: (§3)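 Each test used a mechanized track sprayer delivering 187 l/ha of acetone solution at 15–1000 g ai/ha. Post-emerge foliage at 2–3 leaves was treated with added 0.25% v/v non-ionic surfactant and bottom-watered only. Injury was assessed on day 14, where 100 means total kill.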

[14] = system: common ragweed (Ambrosia artemisizfolia L., AMBEL); experiment: as above; conditions: phytotoxicity rating 0-100 (0 no damage, 100 complete death), 14 days after application
Procedure, shortened: as §3

[15] = system: green foxtail (Setaria viridis, SETVI); experiment: as above; conditions: phytotoxicity rating 0-100 (0 no damage, 100 complete death), 14 days after application
Procedure, shortened: as §3

[16] = system: ivyleaf morningglory (Ipomoea hederacea, IPOHE); experiment: as above; conditions: phytotoxicity rating 0-100 (0 no damage, 100 complete death), 14 days after application
Procedure, shortened: as §3

[17] = system: johnsongrass (Sorghum halepense, SORHA); experiment: as above; conditions: phytotoxicity rating 0-100 (0 no damage, 100 complete death), 14 days after application
Procedure, shortened: as §3

[18] = system: lambsquarters (Chenopodium album, CHEAL); experiment: as above; conditions: phytotoxicity rating 0-100 (0 no damage, 100 complete death), 14 days after application
Procedure, shortened: as §3

[19] = system: large crabgrass (Digitaria sanguinalis, DIGSA); experiment: as above; conditions: phytotoxicity rating 0-100 (0 no damage, 100 complete death), 14 days after application
Procedure, shortened: as §3

[20] = system: redroot pigweed (Amaranthus retroflexus, AMARE); experiment: as above; conditions: phytotoxicity rating 0-100 (0 no damage, 100 complete death), 14 days after application
Procedure, shortened: as §3

[21] = system: sicklepod (Cassia obtusifolia, CASOB); experiment: as above; conditions: phytotoxicity rating 0-100 (0 no damage, 100 complete death), 14 days after application
Procedure, shortened: as §3

[22] = system: velvetleaf (Abutilon theophrasti, ABUTH); experiment: as above; conditions: phytotoxicity rating 0-100 (0 no damage, 100 complete death), 14 days after application
Procedure, shortened: as §3

[23] = system: field corn (Zea mays L., var. Dekalb 535, CORN); experiment: Post-emerge test, crop safety; conditions: phytotoxicity rating 0-100 (0 no damage, 100 complete death), 14 days after application
Procedure, shortened: as §1

[24] = system: upland rice (Oryza sp., var. Tebonnet, RICE); experiment: Post-emerge test, crop safety; conditions: phytotoxicity rating 0-100 (0 no damage, 100 complete death), 14 days after application
Procedure, shortened: as §1

Cn1c(C(F)(F)F)cc(=O)n(-c2c(F)cc(Cl)c(OC3CCCC3)c2N)c1=O [Compound 1-21]
Pre-emerge Herbicidal Activity AMARE (phytotoxicity rating, scale 0-100) ([1]; 63 g ai/ha): 98
Pre-emerge Herbicidal Activity AMARE (phytotoxicity rating, scale 0-100) ([1]; 250 g ai/ha): 100
Pre-emerge Herbicidal Activity ECHCG (phytotoxicity rating, scale 0-100) ([2]; 63 g ai/ha): 0
Pre-emerge Herbicidal Activity ECHCG (phytotoxicity rating, scale 0-100) ([2]; 250 g ai/ha): 95
Pre-emerge Herbicidal Activity AMBEL (phytotoxicity rating, scale 0-100) ([3]; 63 g ai/ha): 0
Pre-emerge Herbicidal Activity AMBEL (phytotoxicity rating, scale 0-100) ([3]; 250 g ai/ha): 100
Pre-emerge Herbicidal Activity SETVI (phytotoxicity rating, scale 0-100) ([4]; 63 g ai/ha): 95
Pre-emerge Herbicidal Activity SETVI (phytotoxicity rating, scale 0-100) ([4]; 250 g ai/ha): 100
Pre-emerge Herbicidal Activity IPOHE (phytotoxicity rating, scale 0-100) ([5]; 63 g ai/ha): 0
Pre-emerge Herbicidal Activity IPOHE (phytotoxicity rating, scale 0-100) ([5]; 250 g ai/ha): 40
Pre-emerge Herbicidal Activity SORHA (phytotoxicity rating, scale 0-100) ([6]; 63 g ai/ha): 0
Pre-emerge Herbicidal Activity SORHA (phytotoxicity rating, scale 0-100) ([6]; 250 g ai/ha): 90
Pre-emerge Herbicidal Activity CHEAL (phytotoxicity rating, scale 0-100) ([7]; 63 g ai/ha): 100
Pre-emerge Herbicidal Activity CHEAL (phytotoxicity rating, scale 0-100) ([7]; 250 g ai/ha): 100
Pre-emerge Herbicidal Activity DIGSA (phytotoxicity rating, scale 0-100) ([8]; 63 g ai/ha): 70
Pre-emerge Herbicidal Activity DIGSA (phytotoxicity rating, scale 0-100) ([8]; 250 g ai/ha): 100
Pre-emerge Herbicidal Activity CASOB (phytotoxicity rating, scale 0-100) ([9]; 63 g ai/ha): 0
Pre-emerge Herbicidal Activity CASOB (phytotoxicity rating, scale 0-100) ([9]; 250 g ai/ha): 0
Pre-emerge Herbicidal Activity ABUTH (phytotoxicity rating, scale 0-100) ([10]; 63 g ai/ha): 70
Pre-emerge Herbicidal Activity ABUTH (phytotoxicity rating, scale 0-100) ([10]; 250 g ai/ha): 100
Pre-emerge crop damage CORN (phytotoxicity rating, scale 0-100) ([11]; 63 g ai/ha): 0
Pre-emerge crop damage CORN (phytotoxicity rating, scale 0-100) ([11]; 250 g ai/ha): 0
Pre-emerge crop damage RICE (phytotoxicity rating, scale 0-100) ([12]; 63 g ai/ha): 0
Pre-emerge crop damage RICE (phytotoxicity rating, scale 0-100) ([12]; 250 g ai/ha): 10
Post-emerge Herbicidal Activity ECHCG ([13]; 63 g ai/ha): 0
Post-emerge Herbicidal Activity ECHCG ([13]; 250 g ai/ha): 0
Post-emerge Herbicidal Activity AMBEL ([14]; 63 g ai/ha): 10
Post-emerge Herbicidal Activity AMBEL ([14]; 250 g ai/ha): 30
Post-emerge Herbicidal Activity SETVI ([15]; 63 g ai/ha): 10
Post-emerge Herbicidal Activity SETVI ([15]; 250 g ai/ha): 30
Post-emerge Herbicidal Activity IPOHE ([16]; 63 g ai/ha): 70
Post-emerge Herbicidal Activity IPOHE ([16]; 250 g ai/ha): 90
Post-emerge Herbicidal Activity SORHA ([17]; 63 g ai/ha): 0
Post-emerge Herbicidal Activity SORHA ([17]; 250 g ai/ha): 0
Post-emerge Herbicidal Activity CHEAL ([18]; 63 g ai/ha): 75
Post-emerge Herbicidal Activity CHEAL ([18]; 250 g ai/ha): 95
Post-emerge Herbicidal Activity DIGSA ([19]; 63 g ai/ha): 0
Post-emerge Herbicidal Activity DIGSA ([19]; 250 g ai/ha): 0
Post-emerge Herbicidal Activity AMARE ([20]; 63 g ai/ha): 95
Post-emerge Herbicidal Activity AMARE ([20]; 250 g ai/ha): 100
Post-emerge Herbicidal Activity CASOB ([21]; 63 g ai/ha): 10
Post-emerge Herbicidal Activity CASOB ([21]; 250 g ai/ha): 30
Post-emerge Herbicidal Activity ABUTH ([22]; 63 g ai/ha): 85
Post-emerge Herbicidal Activity ABUTH ([22]; 250 g ai/ha): 100
Post-emerge Herbicidal Activity CORN (crop damage) ([23]; 63 g ai/ha): 5
Post-emerge Herbicidal Activity CORN (crop damage) ([23]; 250 g ai/ha): 5
Post-emerge Herbicidal Activity RICE (crop damage) ([24]; 63 g ai/ha): 10
Post-emerge Herbicidal Activity RICE (crop damage) ([24]; 250 g ai/ha): 10
